From ChEMBL document CHEMBL1770137, “High concentration electrophysiology-based fragment screen: discovery of novel acid-sensing ion channel 3 (ASIC3) inhibitors” (Bioorg Med Chem Lett, 2011)

Tests used:
[1] = target: T1, Acid-sensing ion channel 3 (Homo sapiens, UniProt Q9UHC3); test: Inhibition of human ASIC3 expressed in HEK293 cells assessed as inhibition of acid-evoked current by manual patch-clamp electrophysiology assay; type: cell-based
T1 sequence (Q9UHC3 whole entry): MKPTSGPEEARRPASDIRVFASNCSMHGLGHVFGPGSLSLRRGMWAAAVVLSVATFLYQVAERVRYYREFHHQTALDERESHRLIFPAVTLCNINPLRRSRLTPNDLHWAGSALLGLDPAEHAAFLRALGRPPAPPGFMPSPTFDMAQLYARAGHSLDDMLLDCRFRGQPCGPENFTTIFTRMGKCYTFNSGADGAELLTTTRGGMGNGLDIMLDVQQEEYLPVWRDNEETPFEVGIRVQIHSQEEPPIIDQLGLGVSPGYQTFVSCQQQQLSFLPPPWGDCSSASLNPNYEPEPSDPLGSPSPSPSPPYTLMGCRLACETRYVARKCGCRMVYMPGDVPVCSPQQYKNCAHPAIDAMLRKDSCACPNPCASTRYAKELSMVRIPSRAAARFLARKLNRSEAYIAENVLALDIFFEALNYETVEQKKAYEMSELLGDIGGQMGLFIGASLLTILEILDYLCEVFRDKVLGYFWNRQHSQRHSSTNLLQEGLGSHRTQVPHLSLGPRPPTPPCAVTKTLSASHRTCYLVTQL

[2] = target: T2, Acid-sensing ion channel 3 (Homo sapiens) (UniProt Q9UHC3); test: Inhibition of human ASIC3 expressed in HEK293 cells assessed as inhibition of acid-evoked current at 1000 uM by manual patch-clamp electrophysiology assay; type: cell-based
T2 sequence (whole entry): T1 sequence (Q9UHC3 whole entry)

[3] = Plasma protein binding in human; type: ADME, cell-free; details: read-out: PPB (converted)
[4] = Lipophilicity, log D of the compound by HPLC; type: physicochemical
[5] = Plasma protein binding in rat; type: ADME, cell-free; details: read-out: PPB (converted)
CYP3A4 = CYP3A4 (Homo sapiens, UniProt P08684); test: Inhibition of CYP3A4 at 10 uM; type: ADME
[6] = target: Voltage-dependent L-type calcium channel subunit alpha-1C (Homo sapiens, UniProt Q13936); test: Inhibition of Cav1.2
CYP2C9 = CYP2C9 (Homo sapiens, UniProt P11712); test: Inhibition of CYP2C9 at 10 uM; type: ADME
CYP2D6 = CYP2D6 (Homo sapiens, UniProt P10635); test: Inhibition of CYP2D6 at 10 uM; type: ADME
[7] = target: Voltage-gated inwardly rectifying potassium channel KCNH2 (Homo sapiens, UniProt Q12809); test: Binding affinity to human ERG
[8] = Half life in rat; type: ADME, organism-based; details: in vivo
[9] = Volume of distribution in rat; type: ADME, organism-based; details: in vivo
[10] = Clearance in rat; type: ADME, organism-based; details: in vivo
[11] = target: T2, Acid-sensing ion channel 3 (Homo sapiens); test: Inhibition of human ASIC3 expressed in HEK293 cells assessed as inhibition of acid-evoked current at 500 uM by manual patch-clamp electrophysiology assay; type: cell-based
[12] = target: T2, Acid-sensing ion channel 3 (Homo sapiens); test: Inhibition of human ASIC3 expressed in HEK293 cells assessed as inhibition of acid-evoked current at 10 uM by manual patch-clamp electrophysiology assay; type: cell-based

CYP3A4, sequence (P08684 whole entry): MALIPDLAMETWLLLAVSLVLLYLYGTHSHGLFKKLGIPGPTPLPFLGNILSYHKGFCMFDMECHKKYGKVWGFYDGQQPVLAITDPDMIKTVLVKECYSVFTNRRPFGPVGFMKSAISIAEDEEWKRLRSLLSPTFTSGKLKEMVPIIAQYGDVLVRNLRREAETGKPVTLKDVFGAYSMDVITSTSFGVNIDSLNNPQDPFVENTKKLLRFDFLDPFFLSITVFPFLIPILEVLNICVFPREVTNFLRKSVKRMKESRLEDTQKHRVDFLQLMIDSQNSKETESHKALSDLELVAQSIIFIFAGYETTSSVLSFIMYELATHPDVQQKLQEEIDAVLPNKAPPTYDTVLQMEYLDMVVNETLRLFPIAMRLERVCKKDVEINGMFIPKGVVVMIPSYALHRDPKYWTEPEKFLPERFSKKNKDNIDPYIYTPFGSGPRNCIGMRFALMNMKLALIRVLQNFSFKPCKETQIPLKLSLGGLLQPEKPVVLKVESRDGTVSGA
Voltage-dependent L-type calcium channel subunit alpha-1C, sequence (Q13936 whole entry): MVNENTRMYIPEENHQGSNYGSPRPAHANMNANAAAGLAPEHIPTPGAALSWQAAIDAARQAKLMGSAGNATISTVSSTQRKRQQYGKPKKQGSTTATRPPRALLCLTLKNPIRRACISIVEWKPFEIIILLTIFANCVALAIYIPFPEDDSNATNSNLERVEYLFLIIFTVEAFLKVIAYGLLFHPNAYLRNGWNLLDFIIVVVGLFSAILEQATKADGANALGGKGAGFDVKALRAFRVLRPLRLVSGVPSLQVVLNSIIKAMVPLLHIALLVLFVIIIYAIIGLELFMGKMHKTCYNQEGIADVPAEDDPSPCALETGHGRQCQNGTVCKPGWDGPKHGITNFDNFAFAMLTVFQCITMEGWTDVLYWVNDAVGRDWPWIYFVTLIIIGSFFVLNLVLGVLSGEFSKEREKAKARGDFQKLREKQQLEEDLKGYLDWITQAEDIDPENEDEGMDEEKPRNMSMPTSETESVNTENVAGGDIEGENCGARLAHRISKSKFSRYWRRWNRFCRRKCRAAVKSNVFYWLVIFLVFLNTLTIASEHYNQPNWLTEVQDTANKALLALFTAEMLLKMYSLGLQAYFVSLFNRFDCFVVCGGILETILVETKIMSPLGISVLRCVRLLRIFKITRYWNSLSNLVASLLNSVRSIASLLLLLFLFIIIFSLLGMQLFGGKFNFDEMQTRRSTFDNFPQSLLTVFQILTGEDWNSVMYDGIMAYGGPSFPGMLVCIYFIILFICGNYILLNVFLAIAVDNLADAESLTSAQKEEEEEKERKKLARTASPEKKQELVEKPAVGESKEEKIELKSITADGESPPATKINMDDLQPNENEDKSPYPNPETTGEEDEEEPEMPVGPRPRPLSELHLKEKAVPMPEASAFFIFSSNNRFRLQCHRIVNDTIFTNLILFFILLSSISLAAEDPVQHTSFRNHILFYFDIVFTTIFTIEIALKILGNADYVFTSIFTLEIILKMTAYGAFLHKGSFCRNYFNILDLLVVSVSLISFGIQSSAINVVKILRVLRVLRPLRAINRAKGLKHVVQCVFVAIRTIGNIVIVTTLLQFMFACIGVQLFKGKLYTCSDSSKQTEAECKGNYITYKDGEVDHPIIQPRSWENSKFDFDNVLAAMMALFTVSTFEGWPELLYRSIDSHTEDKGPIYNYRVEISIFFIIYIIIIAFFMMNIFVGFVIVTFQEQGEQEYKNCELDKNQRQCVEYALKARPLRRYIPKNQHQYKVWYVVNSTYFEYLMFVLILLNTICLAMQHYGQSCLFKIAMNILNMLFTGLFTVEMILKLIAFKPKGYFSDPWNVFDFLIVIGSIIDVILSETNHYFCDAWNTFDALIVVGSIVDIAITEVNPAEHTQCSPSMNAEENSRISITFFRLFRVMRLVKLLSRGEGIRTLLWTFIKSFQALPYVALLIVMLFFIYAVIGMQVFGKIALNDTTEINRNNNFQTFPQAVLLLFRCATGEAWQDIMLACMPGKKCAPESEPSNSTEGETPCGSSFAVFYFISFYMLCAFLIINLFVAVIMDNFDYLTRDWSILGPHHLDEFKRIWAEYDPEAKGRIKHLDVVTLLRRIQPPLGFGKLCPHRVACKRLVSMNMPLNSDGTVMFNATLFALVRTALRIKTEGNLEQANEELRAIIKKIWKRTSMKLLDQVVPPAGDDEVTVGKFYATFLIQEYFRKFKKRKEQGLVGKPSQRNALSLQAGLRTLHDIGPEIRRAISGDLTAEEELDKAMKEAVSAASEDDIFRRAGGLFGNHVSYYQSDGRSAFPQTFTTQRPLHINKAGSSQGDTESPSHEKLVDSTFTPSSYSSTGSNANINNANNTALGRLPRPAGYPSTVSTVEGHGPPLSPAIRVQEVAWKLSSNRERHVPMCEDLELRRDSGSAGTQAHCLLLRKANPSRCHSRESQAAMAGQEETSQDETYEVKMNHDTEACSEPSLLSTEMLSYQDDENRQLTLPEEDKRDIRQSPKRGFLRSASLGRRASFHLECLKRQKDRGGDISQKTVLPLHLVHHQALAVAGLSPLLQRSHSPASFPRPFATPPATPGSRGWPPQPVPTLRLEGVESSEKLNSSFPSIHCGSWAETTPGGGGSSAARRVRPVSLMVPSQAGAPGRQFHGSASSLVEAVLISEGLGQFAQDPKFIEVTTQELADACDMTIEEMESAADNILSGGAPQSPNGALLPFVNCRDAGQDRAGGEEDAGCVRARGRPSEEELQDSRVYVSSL
CYP2D6, sequence (P10635 whole entry): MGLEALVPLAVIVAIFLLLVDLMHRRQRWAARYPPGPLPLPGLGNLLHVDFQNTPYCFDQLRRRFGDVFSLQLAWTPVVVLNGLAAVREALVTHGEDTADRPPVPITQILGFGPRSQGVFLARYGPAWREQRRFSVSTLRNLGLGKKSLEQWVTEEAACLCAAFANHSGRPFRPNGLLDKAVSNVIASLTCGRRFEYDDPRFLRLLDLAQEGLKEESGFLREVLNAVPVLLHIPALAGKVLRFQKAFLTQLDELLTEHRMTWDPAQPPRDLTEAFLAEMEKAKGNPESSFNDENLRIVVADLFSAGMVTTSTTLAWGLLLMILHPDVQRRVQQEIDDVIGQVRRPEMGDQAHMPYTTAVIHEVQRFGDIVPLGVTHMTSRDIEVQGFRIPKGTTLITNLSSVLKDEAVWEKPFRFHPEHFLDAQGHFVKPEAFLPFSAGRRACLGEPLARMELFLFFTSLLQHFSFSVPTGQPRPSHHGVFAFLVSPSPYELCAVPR
CYP2C9, sequence (P11712 whole entry): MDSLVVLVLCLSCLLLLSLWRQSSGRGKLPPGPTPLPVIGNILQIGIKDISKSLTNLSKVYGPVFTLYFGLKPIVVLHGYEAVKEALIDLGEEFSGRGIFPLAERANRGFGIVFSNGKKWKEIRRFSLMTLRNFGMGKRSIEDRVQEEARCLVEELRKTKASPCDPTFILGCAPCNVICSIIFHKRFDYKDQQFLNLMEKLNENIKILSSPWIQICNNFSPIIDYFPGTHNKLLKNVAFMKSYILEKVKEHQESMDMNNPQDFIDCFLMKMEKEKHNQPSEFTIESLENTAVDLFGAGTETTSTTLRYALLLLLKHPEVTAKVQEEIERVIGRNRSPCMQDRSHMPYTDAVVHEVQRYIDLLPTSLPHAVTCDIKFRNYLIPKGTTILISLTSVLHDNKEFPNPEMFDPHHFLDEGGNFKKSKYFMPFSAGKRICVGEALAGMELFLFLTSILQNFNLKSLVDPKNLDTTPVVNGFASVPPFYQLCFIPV
Voltage-gated inwardly rectifying potassium channel KCNH2, sequence (Q12809 whole entry): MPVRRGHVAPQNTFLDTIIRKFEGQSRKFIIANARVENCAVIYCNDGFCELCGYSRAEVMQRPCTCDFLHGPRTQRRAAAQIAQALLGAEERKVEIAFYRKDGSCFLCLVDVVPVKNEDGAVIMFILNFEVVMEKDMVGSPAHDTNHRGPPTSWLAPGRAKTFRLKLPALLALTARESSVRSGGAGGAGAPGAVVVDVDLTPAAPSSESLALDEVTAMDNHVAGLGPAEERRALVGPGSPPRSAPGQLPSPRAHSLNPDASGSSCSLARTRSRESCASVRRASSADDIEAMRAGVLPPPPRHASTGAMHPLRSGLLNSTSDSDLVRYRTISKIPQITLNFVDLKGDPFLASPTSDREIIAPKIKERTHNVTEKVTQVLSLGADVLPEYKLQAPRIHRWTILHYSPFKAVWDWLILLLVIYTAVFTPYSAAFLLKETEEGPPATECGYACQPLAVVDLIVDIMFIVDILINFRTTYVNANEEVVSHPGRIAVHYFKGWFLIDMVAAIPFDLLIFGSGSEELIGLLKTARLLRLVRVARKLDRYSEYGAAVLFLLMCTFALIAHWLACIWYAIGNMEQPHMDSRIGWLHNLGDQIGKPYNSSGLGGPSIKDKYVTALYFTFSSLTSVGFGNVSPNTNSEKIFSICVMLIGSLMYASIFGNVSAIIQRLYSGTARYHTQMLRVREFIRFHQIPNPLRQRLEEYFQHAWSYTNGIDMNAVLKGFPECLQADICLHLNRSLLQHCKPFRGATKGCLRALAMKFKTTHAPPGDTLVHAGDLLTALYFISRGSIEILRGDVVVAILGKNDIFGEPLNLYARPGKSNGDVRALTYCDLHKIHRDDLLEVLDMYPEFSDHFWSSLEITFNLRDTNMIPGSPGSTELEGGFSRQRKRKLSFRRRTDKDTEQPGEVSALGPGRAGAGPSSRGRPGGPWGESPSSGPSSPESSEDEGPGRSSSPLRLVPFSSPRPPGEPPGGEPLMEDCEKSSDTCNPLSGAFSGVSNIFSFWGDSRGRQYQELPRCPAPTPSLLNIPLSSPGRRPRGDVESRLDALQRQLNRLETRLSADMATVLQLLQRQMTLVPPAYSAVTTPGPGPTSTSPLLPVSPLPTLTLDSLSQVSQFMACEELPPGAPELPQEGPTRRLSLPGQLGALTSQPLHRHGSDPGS

Which IC50 [1] does the source give for `NCc1ccc(-c2c[nH]cn2)cc1` here?
The IC50 was 160 µM.

For `COc1ccc2[nH]cc(CN3CCc4cc(-c5cccc(C(F)(F)F)c5)ccc4C3)c2c1`, which IC50 [1] is on record?
Its IC50 is 103 µM.

With `Nc1cc(-c2ccccc2)ncn1` as the compound, how does the IC50 [1] read?
Its IC50 is 130 µM.

For `Nc1ccnc(-c2cccc(C#CCCO)c2)c1`, which IC50 [1] is on record?
Its IC50 is 2.6 µM.

With `COc1cccnc1Nc1cccc(C)n1` as the compound, how does the IC50 [1] read?
Its IC50 is 190 µM.

Which IC50 [1] does the source give for `Nc1cccc(-c2ccccc2)n1` here?
The IC50 was 763 µM.

With `Brc1ccc2c(c1)CCNC2` as the compound, how does the IC50 [1] read?
The IC50 was 701 µM.

Which IC50 [1] does the source give for `CCCc1cc(N)c2cc(C(=O)NCCc3ccc(Cl)cc3)ccc2n1` here?
Its IC50 is 9.6 µM.

With `Cc1cccc(Nc2nccc3ccoc23)n1` as the compound, how does the IC50 [1] read?
Its IC50 is 9 µM.

For `NCc1nc2ccccc2s1`, which IC50 [1] is on record?
The IC50 was 363 µM.

With `CN1CCN(c2ccc(-c3ccc4c(c3)CCNC4)cc2)CC1` as the compound, how does the IC50 [1] read?
The IC50 was 14.4 µM.

Which IC50 [1] does the source give for `Cc1cccc(Nc2ccc(C#CC(C)(C)O)cc2)n1` here?
Its IC50 is 17 µM.

With `CC1CCCCN1c1cccc(-c2ccc3c(c2)CCNC3)n1` (stereo unspecified) as the compound, how does the IC50 [1] read?
Its IC50 is 1.7 µM.

For `c1cc2c(cc1-c1cnc3c(c1)CCN3)CCNC2`, which IC50 [1] is on record?
Its IC50 is 19.4 µM.

With `c1ccc(-c2c[nH]cn2)cc1` as the compound, how does the inhibition [2] read?
Its inhibition is 66%.

With `COc1ccc2[nH]cc(CN3CCc4cc(Br)ccc4C3)c2c1` as the compound, how does the IC50 [1] read?
Its IC50 is 10.9 µM.

Which fraction unbound [3] does the source give for `CN1CCN(c2ccc(-c3ccc4c(c3)CCNC4)cc2C(F)(F)F)CC1` here?
Its fraction unbound is 0.11.

And the logD [4]?
Its logD is 2.13.

What about the fraction unbound [5] of the same compound?
The fraction unbound was 0.011.

What about the IC50 [1] of the same compound?
Its IC50 is 3.1 µM.

What about the inhibition at 10 µM (CYP3A4) of the same compound?
Its inhibition at 10 µM is less than 35%.

What about the IC50 [6] of the same compound?
The IC50 was greater than 30 µM.

What about the inhibition at 10 µM (CYP2C9) of the same compound?
The inhibition at 10 µM was less than 35%.

What about the inhibition at 10 µM (CYP2D6) of the same compound?
The inhibition at 10 µM was less than 35%.

With `Cc1cccc(Nc2ccc(-c3ccc(N4CCNCC4)nc3)cc2)n1` as the compound, how does the fraction unbound [3] read?
The fraction unbound was 0.098.

And the Ki [7]?
The Ki was 0.7 µM.

And the logD [4]?
The logD was 1.99.

What about the fraction unbound [5] of the same compound?
The fraction unbound was 0.007.

And the half-life [8]?
The half-life was 4.8 h.

What about the IC50 [1] of the same compound?
Its IC50 is 3.8 µM.

And the inhibition at 10 µM (CYP3A4)?
The inhibition at 10 µM was less than 45%.

What about the Vd [9] of the same compound?
Its Vd is 3.5 L/kg.

And the IC50 [6]?
The IC50 was 20 µM.

What about the inhibition at 10 µM (CYP2C9) of the same compound?
The inhibition at 10 µM was less than 45%.

What about the clearance [10] of the same compound?
The clearance was 11 mL/min/kg.

And the inhibition at 10 µM (CYP2D6)?
Its inhibition at 10 µM is less than 45%.

With `Nc1ccc(-c2c[nH]cn2)cc1` as the compound, how does the IC50 [1] read?
Its IC50 is 430 µM.

With `Nc1ccnc(-c2ccccc2)c1` as the compound, how does the IC50 [1] read?
The IC50 was 6.9 µM.

Which IC50 [1] does the source give for `FC(F)(F)c1cccc(-c2ccc3c(c2)CCNC3)c1` here?
The IC50 was 7.1 µM.

With `Cc1cc(N2CCc3cc(Br)ccc3C2)c2ccccc2n1` as the compound, how does the IC50 [1] read?
Its IC50 is 27.6 µM.

With `NCc1cc2ccccc2s1` as the compound, how does the IC50 [1] read?
Its IC50 is 97 µM.

For `Brc1ccc2c(c1)CCN2`, which inhibition [11] is on record?
The inhibition was 12%.

With `Clc1cc(Cl)cc(-c2ccc3c(c2)CCNC3)c1` as the compound, how does the IC50 [1] read?
Its IC50 is 3.3 µM.

Which IC50 [1] does the source give for `Nc1ccnc(-c2cccc(C#Cc3ccccc3)c2)c1` here?
Its IC50 is 1.2 µM.

Which IC50 [1] does the source give for `Nc1cc(Cc2ccccn2)nc(-c2ccccc2)c1` here?
Its IC50 is 5.8 µM.

With `CCCc1cc(NC)c2cc(C(=O)NCCc3ccc(Cl)cc3)ccc2n1` as the compound, how does the inhibition [12] read?
Its inhibition is 3%.
